Columns and labels:
B16 melanoma 4A5 cell = assay: Melanin production suppressing evaluation test (theophylline-induced melanine production); assay type: cell-based, mouse; details: sample at a concentration of 100 μl or less; 0.2 mM theophylline; culturing 3 days
Procedure: As a test for a whitening effect, evaluation of the action of B16 melanoma 4A5 cell on theophylline-induced melanine production was carried out on a glyceryl ascorbic acid acylated derivative of the present invention, according to the following procedure. The same evaluations were carried out also on arbutin, ascorbic acid, sodium ascorbate, magnesium ascorbyl phosphate, glucosyl ascorbic acid, and 3-O-glyceryl ascorbic acid and 2-O-glyceryl ascorbic acid obtained in the Synthesis Examples mentioned above, as comparison.
(1) B16 mouse melanoma 4A5 strain was sowed onto a 48-well plate at a cell density of 2.0×10^4 cells/well. (2) Culturing was performed for 24 hours with Dulbecco's Modified Eagle's medium (manufactured by SIGMA. Hereinafter, abbreviated as D-MEM) containing 10% fetal bovine serum (manufactured by Roshe Diagnostics). Then, it was changed to 0.2 mM theophylline and a 10% fetal bovine serum-containing D-MEM which contains a sample of given concentration. (3) After culturing for 3 days in the co-existence of a sample, the medium was removed using an aspirator. Then, after distilled water was added, cells were broken by an ultrasonic wave. (4) Thereafter, the amount of protein was determined using BCA protein assay kit (manufactured by PIERCE), and the produced amount of melanine was measured by an alkali solubilizing method described later. To the cell-destructed solution was added sodium hydroxide so as to give a final concentration of 2 mol/L and the mixture was dissolved by heating (60° C., 15 minutes), then, the absorbance at 450 nm was measured using a micro plate reader. The melanine amount was calculated from a calibration curve made using synthetic melanine (SIGMA) as a standard. The melanine amount per unit protein was calculated by dividing the melanine amount by the protein amount. (5) The melanine production suppressing rate was calculated according to the following formula.
Melanine production suppressing rate(%)=[1−(A−B)/(C−B)]×100
[wherein, A represents the melanine amount per unit protein (g/g) in adding a sample, B represents the melanine amount per unit protein (g/g) in the normal group, and C represents the melanine amount per unit protein (g/g) in the control group.]
The normal group means the case where neither theophylline nor sample was added.(that is; theophylline(−) and sample(−))
The control group means the case where neither sample was not added but theophylline was added.(that is; theophylline (+) and sample(−))
In the following Tables, the melanine production suppressing rate in applying a sample at a concentration of […] or less is expressed as described below.

[1] = tested on: Normal human dermal fibroblasts; assay: Collagen production evaluation test (Sircol collagen assay); assay type: cell-based; details: sample 100 μM, cultured 48 hours; for activity at 100 µM: Homo sapiens, Fibroblast, read-out: Collagen production promoting effect (collagen production amount, control group is 100%)
Procedure: The collagen production promoting effects of the glyceryl ascorbic acid acylated derivatives of the present invention were evaluated, according to the following procedure. As comparison, arbutin, ascorbic acid, sodium ascorbate, magnesium ascorbyl phosphate, glucosyl ascorbic acid, 3-O-glyceryl ascorbic acid and 2-O-glyceryl ascorbic acid were used like in Test Example 1.
Normal human dermal fibroblasts were regulated with a 10% (v/v) fetal bovine serum (manufactured by Invitrogen)-containing D-MEM so as to give a cell density of 2.5×10^4 cells/well, then, pre-incubation for 24 hours was performed on a 96-well plate. After the medium was removed, a sample regulated with a 5% (v/v) fetal bovine serum-containing D-MEM to a concentration of 100 μM was added to each well, then, cultured for 48 hours at 37° C. and 5% CO2. After completion of culturing, the amount of free collagen was measured using Sircol collagen assay kit (manufactured by Biocolor).
The collagen production amount in applying a sample at a concentration of 100 μM is obtained as % value when the control group is 100%, and the results are shown in Table 4 based on the following standard.

[2] = Stability test: odor and color change of 2% aqueous solution stored at 50° C.; assay type: physicochemical; details: pH7, ten panelists
Procedure: Using 2-O-glyceryl-6-O-octanoyl ascorbic acid obtained in Example 2 and 2-O-glyceryl-6-O-octadecanoyl ascorbic acid obtained in Example 9, an evaluation was made on the stability of odor and color change when stored at 50° C. for 4 weeks, according to the following procedure. For comparison, magnesium ascorbyl phosphate, ascorbic acid and 3-O-glyceryl ascorbic acid were used.
Aqueous solutions (2%) of various test samples were adjusted to pH7 with a dilute sodium hydroxide aqueous solution or a dilute hydrochloric acid aqueous solution, and charged into 50 mL screw tubes. The tubes were sealed and stored at 50° C. for 4 weeks. The odor and degree of color change immediately after preparation, after storage for two weeks and after storage for four weeks were evaluated by ten panelists based on the following methods and according to the following criterion.
3: almost no change as compared with that immediately after preparation
2: color change is observed as compared with that immediately after preparation
1: intense color change is observed as compared with that immediately after preparation
Based on the evaluation results, classification was conducted as shown below.
◯: total point of 10 panelists is 25 or more
Δ: total point of 10 panelists is 16 to 24
x: total point of 10 panelists is 15 or less

[3] = In vivo moisturizing test (stratum corneum water content, forearm); details: 5 g in 100 mL water, pH 7, 0.3 mL on forearm, 10 subjects
Procedure: An in vitro moisturizing test and an in vivo moisturizing test of the glyceryl ascorbic acid acylated derivatives of Examples 1 to 6 were carried out according to the following manner. For comparison, sodium ascorbate, magnesium ascorbyl phosphate, glucosyl ascorbic acid, 3-O-glyceryl ascorbic acid, 2-O-glyceryl ascorbic acid and 3-O-cetyl ascorbic acid were used.
Each test sample (5 g) was dissolved in 100 mL of water, and pH thereof was adjusted to 7 with a dilute sodium hydroxide aqueous solution or a dilute hydrochloric acid aqueous solution to prepare a sample solution. A paper filter of 1 cm×1 cm was placed on a forearm portion and 0.3 mL of the prepared sample solution was applied on this, and covered and fixed by a polyamide film. Then, 3 hours and 8 hours after, the stratum corneum water content at the sample-applied portion was measured using CORNEOMETER CM825 (manufactured by Integral Corporation). The test was carried out with 10 subjects, and evaluated according to the following criterion (evaluation standard).
3: Stratum corneum water content increased by 15% or more, based on the water content before sample application
2: Stratum corneum water content increased by 0 to less than 15%, based on the water content before sample application
1: There was no change or there was a reduction in stratum corneum water content, before and after sample application.
Based on the evaluation results, classification was set as described below.
◯: Total points of 10 subjects is 25 or more
Δ: Total points of 10 subjects is 16 to 24
x: Total points of 10 subjects is 15 or less

[4] = storage period 0 (immediately after preparation)

For `OC[C@H]1O[C@@H](Oc2ccc(O)cc2)[C@H](O)[C@@H](O)[C@@H]1O` [Arbutin, reference compound], the “Whitening effect (melanine production suppressing rate)” value (shortened to “Whitening effect”) (B16 melanoma 4A5 cell) was “⊚ (50% or more)” and the activity at 100 µM [1] was under 100%.
For `O=C1O[C@H]([C@@H](O)CO)C(O)=C1O` [Ascorbic acid], the “Whitening effect” value (B16 melanoma 4A5 cell) was “Δ (Less than 30%)”, the activity at 100 µM [1] was 100 to 200% and the Odor ([2]; storage 2 weeks at 50° C.) was “Δ (total point of 10 panelists is 16 to 24)”. The Color change [2, 4] was “◯ (total point of 10 panelists is 25 or more)” and the Odor [2, 4] was “◯ (total point of 10 panelists is 25 or more)”.
With `CCCC(=O)OC[C@H](O)[C@H]1OC(=O)C(OCC(O)CO)=C1O` (some centres unmarked) [Example 1, 2-O-glyceryl-6-O-butanoyl ascorbic acid] the “Whitening effect” value (B16 melanoma 4A5 cell) was “◯ (30 to 49%)”, the activity at 100 µM [1] was 100 to 200% and the “in vivo moisturizing (stratum corneum water content) after 3 hours” value ([3]; 3 hours) was “◯ (Total points of 10 subjects is 25 or more)”. The “in vivo moisturizing (stratum corneum water content) after 8 hours” value ([3]; 8 hours) was “◯ (Total points of 10 subjects is 25 or more)”.
In the case of `CCCCCCCCCCCCCC(=O)OC[C@H](O)[C@H]1OC(=O)C(OCC(O)CO)=C1O` (some centres unmarked) [Example 7, 2-O-glyceryl-6-O-tetradecanoyl ascorbic acid], the “Whitening effect” value (B16 melanoma 4A5 cell) is reported as “⊚ (50% or more)”.
For `CCCCCCCCCCCCCCCCCC(=O)OC[C@H](O)[C@H]1OC(=O)C(OCC(O)CO)=C1O` (some centres unmarked) [Example 9, 2-O-glyceryl-6-O-octadecanoyl ascorbic acid], the “Whitening effect” value (B16 melanoma 4A5 cell) was “⊚ (50% or more)”, the Color change ([2]; storage 2 weeks at 50° C.) was “◯ (total point of 10 panelists is 25 or more)” and the Odor ([2]; storage 2 weeks at 50° C.) was “◯ (total point of 10 panelists is 25 or more)”. For the same molecule, the Color change ([2]; storage 4 weeks at 50° C.) was “◯ (total point of 10 panelists is 25 or more)”, the Odor ([2]; storage 4 weeks at 50° C.) was “◯ (total point of 10 panelists is 25 or more)” and the Color change [2, 4] was “◯ (total point of 10 panelists is 25 or more)”. The Odor [2, 4] was “◯ (total point of 10 panelists is 25 or more)”.
In the case of `CCCCCCCC/C=C\CCCCCCCC(=O)OC[C@H](O)[C@H]1OC(=O)C(OCC(O)CO)=C1O` (some centres unmarked) [Example 10, 2-O-glyceryl-6-O-oleoyl ascorbic acid], the “Whitening effect” value (B16 melanoma 4A5 cell) is reported as “⊚ (50% or more)”.
In the case of `CCCC(=O)OCC(O)COC1=C(O)[C@@H]([C@@H](O)COC(=O)CCC)OC1=O` (some centres unmarked) [Example 11, 2-O-(3′-O-butanoylglyceryl)-6-O-butanoyl ascorbic acid], the “Whitening effect” value (B16 melanoma 4A5 cell) is reported as “◯ (30 to 49%)”.
With `CCCC(=O)OCC(O)COC1=C(OC(=O)CCC)[C@@H]([C@@H](O)COC(=O)CCC)OC1=O` (some centres unmarked) [Example 13, 2-O-(3′-O-butanoylglyceryl)-3,6-di-O-butanoyl ascorbic acid] the “Whitening effect” value (B16 melanoma 4A5 cell) was “⊚ (50% or more)” and the activity at 100 µM [1] was 100 to 200%.
`CCCCCCCC(=O)OCC(O)COC1=C(O)[C@@H]([C@@H](O)COC(=O)CCC)OC1=O` (some centres unmarked) [Example 15, 2-O-(3′-O-octanoylglyceryl)-6-O-butanoyl ascorbic acid] showed an activity at 100 µM [1] of 100 to 200%.
For `CCCCCCCCCCCCCCCC(=O)OCC(O)COC1=C(O)[C@@H]([C@@H](O)COC(=O)CCC)OC1=O` (some centres unmarked) [Example 16, 2-O-(3′-O-hexadecanoylglyceryl)-6-O-butanoyl ascorbic acid], the “Whitening effect” value (B16 melanoma 4A5 cell) was “⊚ (50% or more)”.
With `CCCCCCCCCCCC(=O)OC[C@H](O)[C@H]1OC(=O)C(OCC(O)COC(=O)CCC)=C1O` (some centres unmarked) [Example 17, 2-O-(3′-O-butanoylglyceryl)-6-O-dodecanoyl ascorbic acid] the activity at 100 µM [1] was 100 to 200%.
`CCCCCCCC(=O)OC1=C(OCC(O)CO)C(=O)O[C@@H]1[C@@H](O)CO` (some centres unmarked) [Example 18, 2-O-glyceryl-3-O-octanoyl ascorbic acid] gave an activity at 100 µM [1] of 100 to 200%.
For `CCCCCCCCCCCC(=O)OC1=C(OCC(O)CO)C(=O)OC1C(O)COC(=O)CCCCCCC` (centres unmarked) [Example 19, 2-O-glyceryl-3-O-dodecanoyl-6-O-octanoy ascorbic acid], the “Whitening effect” value (B16 melanoma 4A5 cell) was “⊚ (50% or more)”.
With `CCCC(=O)OC[C@H](O)[C@H]1OC(=O)C(O)=C1OCC(O)CO` (some centres unmarked) [Example 20, 3-O-glyceryl-6-O-butanoyl ascorbic acid] the activity at 100 µM [1] was 100 to 200%.
With `CCCCCCCC(=O)OC[C@H](O)[C@H]1OC(=O)C(O)=C1OCC(O)CO` (some centres unmarked) [Example 21, 3-O-glyceryl-6-O-octanoyl ascorbic acid] the “Whitening effect” value (B16 melanoma 4A5 cell) was “⊚ (50% or more)”.
Molecule `CCCCCCCCCCCCCCCC(=O)OC[C@H](O)[C@H]1OC(=O)C(O)=C1OCC(O)CO` (some centres unmarked) [Example 22, 3-O-glyceryl-6-O-hexadecanoyl ascorbic acid] has an activity at 100 µM [1] of 100 to 200%.
With `CCCCCCCCCCCC(=O)OCC(O)COC1=C(O)C(=O)O[C@@H]1[C@@H](O)COC(=O)CCC` (some centres unmarked) [Example 23, 3-O-(3′-O-dodecanoylglyceryl)-6-O-butanoyl ascorbic acid] the activity at 100 µM [1] was 100 to 200%.
In the case of `O=C1O[C@H]([C@@H](O)CO)C([O-])=C1OP(=O)([O-])[O-].O=C1O[C@H]([C@@H](O)CO)C([O-])=C1OP(=O)([O-])[O-].[Mg+2].[Mg+2].[Mg+2]` [Magnesium ascorbyl phosphate], the “Whitening effect” value (B16 melanoma 4A5 cell) is reported as “Δ (Less than 30%)”, the “Collagen production promoting effect (collagen production amount, control group is 100%)” value [1] is reported as “+ (100 to 200%)” and the Color change ([2]; storage 2 weeks at 50° C.) is reported as “Δ (total point of 10 panelists is 16 to 24)”. For the same molecule, the Odor ([2]; storage 2 weeks at 50° C.) was “◯ (total point of 10 panelists is 25 or more)”, the Odor ([2]; storage 4 weeks at 50° C.) was “◯ (total point of 10 panelists is 25 or more)” and the Color change [2, 4] was “◯ (total point of 10 panelists is 25 or more)”. The Odor [2, 4] was “◯ (total point of 10 panelists is 25 or more)”.
In the case of `O=C1O[C@H]([C@@H](O)CO)C([O-])=C1O.[Na+]` [Sodium ascorbate, reference compound], the “Whitening effect” value (B16 melanoma 4A5 cell) is reported as “Δ (Less than 30%)” and the activity at 100 µM [1] is reported as 100 to 200%.

From US20130204017A1, “GLYCERYL ASCORBIC ACID ACYLATED DERIVATIVE OR ITS SALT, PRODUCTION METHOD THEREOF, AND COSMETICS” (SEIWA KASEI COMPANY, LIMITED, priority 2012, published 2013)
